According to publication PMC8568133, “Evaluation of bisphenylthiazoles as a promising class for combating multidrug-resistant fungal infections” (PLoS ONE, 2021):
Converted amounts (≈) assume the structure as drawn. Like-named read-outs stand apart in the source and are kept apart here.

Tests used:
MRSA USA300 = assay: Broth microdilution MIC, initial antibacterial screening; assay type: cell-based, S. aureus; settings: MRSA USA300
Method: (§1) The minimum inhibitory concentrations (MICs) of the tested compounds and control drugs against clinically-relevant bacterial strains were determined using the broth microdilution method, according to guidelines outlined by the Clinical and Laboratory Standards Institute (CLSI), or as described previously.
(§2) Initial screening of the bisphenylthiazoles against Gram-positive and Gram-negative bacteria. Bacterial strains, (except C. difficile that was grown anaerobically on brain heart infusion supplemented agar at 37° C for 48 hours), were grown aerobically overnight on tryptone soy agar plates at 37° C. Afterwards, a bacterial solution equivalent to 0.5 McFarland standard was prepared and diluted in cation-adjusted Mueller-Hinton broth (CAMHB) (for S. aureus, and E. coli) to achieve a bacterial concentration of about 5 × 10^5 CFU/mL. C. difficile was diluted in brain heart infusion supplemented broth, supplemented with yeast extract, hemin and vitamin K to achieve a bacterial concentration of about 5 × 10^5 CFU/mL. Compounds and control drugs were added in the first row of the 96 -well plates, and serially diluted with the corresponding media containing bacteria. Plates were then, incubated aerobi cally at 37° C for 18-20 hours (for S. aureus and E. coli). C. difficile was incubated anaerobically at 37° C for 48 hours. […]
(§3) the visual growth of bacteria.

[1] = tested on: E. coli BW25113 (wild-type); assay: as above; assay type: cell-based, Escherichia coli
Method: as §1, §2, §3

[2] = tested on: C. difficile ATCC BAA1870; assay: Broth microdilution MIC, initial antibacterial screening (anaerobic); assay type: cell-based, Clostridioides difficile
Method: as §1, §2, §3

Candida albicans = assay: Antifungal broth microdilution MIC (50% growth inhibition) and MFC; assay type: cell-based
Method: (§4) Serial dilutions (from 128 μg/mL to 0.06 μg/mL) of the tested compounds and control drugs (fluconazole, itraconazole and amphotericin) (in triplicates), were screened against clinical isolates of Candida albicans, Candida auris, Candida glabrata, Candida parapsilosis, Candida tropicalis, Candida krusei, Cryptococcus neoformans, Cryptococcus gattii and Aspergillus fumigatus species using the broth microdilution method according to the Clinical and Laboratory Standards Institute guidelines. MICs were determined as the lowest concentration of the compounds that inhibited the fungal growth by 50% after incubation at 35 °C for 24 h (for Candida and Aspergillus), or 48 h (for Cryptococcus). The minimum fungicidal concentration (MFC) of these compounds was tested by plating 4 μL from wells with no growth onto YPD agar plates. The plates were incubated at 37 °C for 24 hours before recording the MFC, which was categorized as the lowest concentration that reduced fungal growth by 99.9% [45]. The experiment was repeated three independent times.

[3] = tested on: E. coli JW55031 (tolC-mutant); assay: microbe, parasite or virus in culture; assay type: cell-based, Escherichia coli
Method: as §1, §2, §3

Candida parapsilosis = assay: Antifungal broth microdilution MIC (50% growth inhibition); assay type: cell-based
Method: as §4

Aspergillus fumigatus = assay: as above; assay type: cell-based
Method: as §4

Candida glabrata = assay: Antifungal broth microdilution MIC (50% growth inhibition) and MFC; assay type: cell-based
Method: as §4

Candida krusei = assay: as above; assay type: cell-based
Method: as §4

Candida tropicalis = assay: as above; assay type: cell-based; settings: C. tropicalis ATCC 1369
Method: as §4

Candida auris = assay: as above; assay type: cell-based
Method: as §4

Cryptococcus gattii = assay: Antifungal broth microdilution MIC (50% growth inhibition, 48 h); assay type: cell-based
Method: as §4

Cryptococcus neoformans = assay: as above; assay type: cell-based
Method: as §4

[4] = tested on: Lactobacillus gasseri HM-400; assay: Broth microdilution MIC against normal human microbiota; assay type: cell-based; settings: Lactobacillus gasseri HM-400
Method: (§5) Broth microdilution was utilized to determine the activity of bisphenylthiazoles against the human gut microflora as described elsewhere. A bacterial solution equivalent to 0.5 McFarland standards was prepared and diluted in MRS broth to achieve a bacterial concentration of approximately 5 x 10^5 CFU/mL. Then, compounds/control antifungals (in triplicates), were added to the plates and serially diluted with media containing bacteria. The plates were incubated for 48 hours at 37 °C before recording the MIC values. The experiment was repeated three independent times.

[5] = tested on: Lactobacillus casei ATCC-334; assay: as above; assay type: cell-based; settings: Lactobacillus casei ATCC-334
Method: as §5

[6] = tested on: Lactobacillus crispatus HM-370; assay: as above; assay type: cell-based; settings: Lactobacillus crispatus HM-370
Method: as §5

[7] = tested on: monkey kidney epithelial cells (Vero); assay: In vitro cytotoxicity, MTS assay
Method: (§6) Fig 2 In vitro cytotoxicity assay of bisphenylthiazole compounds 7, 16 and 17 (tested in triplicates at 32, 64 and 128 μg/mL) against: A) human colorectal cells (Caco-2), and B) monkey kidney epithelial cells (Vero) after 24-hours exposure time, using the MTS 3-(4,5-dimethylthiazol-2-yl)-5-(3-carboxymethoxyphenyl)-2-(4-sulfophenyl)-2H-tetrazolium) assay. The data represent the percentage of viable Caco-2 or Vero cells measured as the average absorbance relative to DMSO after exposure to the tested compounds. Dimethyl sulfoxide (DMSO) was used as a negative control. Error bars represent the standard deviation values.
(§7) To explore the tolerability of bisphenylthiazoles, their cytotoxicity profile was assessed in human colorectal adenocarcinoma (Caco-2) and monkey kidney epithelial cells (Vero) as described earlier. Briefly, compounds were incubated with the cells for 24 hours. Then, cells were incubated with MTS reagent for 3 hours before measuring the absorbance values (OD490). The experiment was repeated in two independent times.

[8] = tested on: human colorectal cells (Caco-2); assay: In vitro cytotoxicity, MTS assay; settings: Caco-2, 24 h exposure, MTS
Method: as §6, §7

In the case of `Cc1nc(-c2ccc(-c3ccccc3)cc2)sc1-c1nnc(N2CC[C@H](N(C)C)C2)o1` [Compound 12, (S)-1-{5-[2-((1,1’-biphenyl)-4-yl)-4-methylthiazol-5-yl]-1,3,4-oxadiazol-2-yl}-N,N-dimethylpyrrolidin-3-amine], the MIC (MRSA USA300; Staphylococcus aureus, read-out: MIC) is reported as 16 µg/mL (≈ 37.1 µM), the MIC ([1]; Escherichia coli, read-out: MIC) is reported as > 64 µg/mL and the melting point is reported as 185 to 187 °C. The MIC ([2]; Clostridioides difficile, ATCCBAA1870, read-out: MIC) was 32 µg/mL (≈ 74.1 µM), the MIC (Candida albicans; Candida albicans, C. albicans SS5314 (wild-type), read-out: MIC) was 16 µg/mL (≈ 37.1 µM) and the MIC ([3]; Escherichia coli) was > 64 µg/mL.

With `Cc1nc(-c2ccc(-c3ccccc3)cc2)sc1-c1nnc(N[C@@H]2CCCC[C@H]2N)o1` (relative stereo) [Compound 16, N-{5-[2-((1,1’-Biphenyl)-4-yl)-4-methylthiazol-5-yl]-1,3,4-oxadiazol-2-yl}cyclo-hexane-trans-1,2-diamine] the MIC (MRSA USA300) was 64 µg/mL (≈ 148 µM), the MIC (Candida parapsilosis; C. parapsilosis ATCC 22019) was 1 µg/mL (≈ 2.32 µM) and the MIC (Candida parapsilosis; C. parapsilosis CAB 502638) was 1 µg/mL (≈ 2.32 µM). The MIC (Aspergillus fumigatus; A. fumigatus NR 35303) was 4 µg/mL (≈ 9.27 µM), the MIC (Aspergillus fumigatus; A. fumigatus NR 35304) was 4 µg/mL (≈ 9.27 µM) and the “MIC against Aspergillus fumigatus” value (Aspergillus fumigatus; tested A. fumigatus isolates (Table 5)) was 4 µg/mL (≈ 9.27 µM). The MIC [1] was >64 µg/mL, the MIC [2] was 32 µg/mL (≈ 74.1 µM) and the MIC (Candida glabrata; C. glabrata ATCC 66032) was 1 µg/mL (≈ 2.32 µM). For the same compound, the MIC (Candida glabrata; C. glabrata ATCC MYA-2950) was 1 µg/mL (≈ 2.32 µM), the MIC (Candida albicans) was 2 µg/mL (≈ 4.63 µM) and the MIC (Candida albicans; C. albicans ATCC 10231) was 4 µg/mL (≈ 9.27 µM). For the same compound, the MIC (Candida albicans; C. albicans SS5314 (wild-type)) was 1 µg/mL (≈ 2.32 µM), the MIC (Candida krusei; C. krusei ATCC 34135) was 1 µg/mL (≈ 2.32 µM) and the MIC (Candida krusei; C. krusei CAB 396420) was 1 µg/mL (≈ 2.32 µM). The MIC (Candida tropicalis) was 4 µg/mL (≈ 9.27 µM), the MIC (Candida auris; C. auris 381) was 1 µg/mL (≈ 2.32 µM) and the MIC (Candida auris; C. auris 382) was 2 µg/mL (≈ 4.63 µM). The MIC (Candida auris; C. auris 383) was 1 µg/mL (≈ 2.32 µM), the MIC (Candida auris; C. auris 384) was 1 µg/mL (≈ 2.32 µM) and the MIC (Candida auris; C. auris 385) was 2 µg/mL (≈ 4.63 µM). It also gave an MIC (Candida auris; C. auris 386) of 1 µg/mL (≈ 2.32 µM), an MIC (Candida auris; C. auris 387) of 2 µg/mL (≈ 4.63 µM) and an MIC (Candida auris; C. auris 388) of 1 µg/mL (≈ 2.32 µM). It also gave an MIC (Candida auris; C. auris 389) of 2 µg/mL (≈ 4.63 µM), an MIC (Candida auris; C. auris 390) of 1 µg/mL (≈ 2.32 µM) and an MIC (Cryptococcus gattii; C. gattii NR 43209) of 1 µg/mL (≈ 2.32 µM). For the same compound, the MIC (Cryptococcus gattii; C. gattii NR 43210) was 1 µg/mL (≈ 2.32 µM), the MIC (Cryptococcus neoformans; C. neoformans NR 41298) was 1 µg/mL (≈ 2.32 µM) and the MIC (Cryptococcus neoformans; C. neoformans NR 41300) was 1 µg/mL (≈ 2.32 µM). For the same compound, the MIC (Cryptococcus neoformans; C. neoformans NR 48770) was 1 µg/mL (≈ 2.32 µM), the MIC ([3]; E. coli JW55031 (tolC-mutant)) was 64 µg/mL (≈ 148 µM) and the MIC [4] was >128 µg/mL. For the same compound, the MIC [5] was >128 µg/mL, the MIC [6] was >128 µg/mL and the “concentration up to which non-toxic” value ([7]; Vero, 24 h exposure, MTS) was ≤ 64 µg/mL. For the same compound, the “times more tolerable than amphotericin B” value ([7]; relative to amphotericin B) was 16 times, the CC50 [8] was > 128 µg/mL and the “concentration up to which non-toxic” value [8] was ≤ 64 µg/mL.
